Assay results from patent publication US12097235B2, “Anti-acne pharmaceutical compositions” (priority 2018, dated 2024).
Values after ≈ are worked out from the molar mass of the structure shown. One block for each compound: values may come before it.

How the values were obtained:
[1] = system: Cutibacterium acnes (ATCC 6919); test: Antibacterial assay (MIC, broth microdilution, Presto Blue); assay type: cell-based; details: ATCC6919, C. acnes ATCC 6919, 72 hours, anaerobic, read-out: minimum inhibitory concentration (MIC)
Procedure: The ethanolic extract of Plectranthus […] tested against Cutibacterium acnes (ATCC 6919). The C. acnes bacteria was cultured from a Kwik-Stick on mouse heart and brain agar and then incubated at 37° C. for 72 hours under anaerobic conditions before the assay was done. The 72 hour old bacterial culture was dissolved in brain heart infusion broth and the suspension was adjusted to a 0.5 McFarland standard turbidity. This led to 10^5-10^6 colony forming units (CFU)/ml. In a sterile 96-well plate, 100 μl of the samples from the stock solution that consisted of the plant extracts (2 mg/ml dissolved in 10% dimethyl sulphoxide (DMSO)) and tetracycline the positive control (0.2 mg/ml) was diluted with broth. Twofold serial dilutions were done in broth over a range to give the concentrations 500-3.9 μg/ml for the plant extract and 50-0.3 μg/ml for tetracycline. To all the wells of the 96-well plate, 100 μl of bacterial suspension was added. The solvent control wells contained 2.5% DMSO with bacterial suspension and no plant samples and the negative control, bacterial suspension with no plant samples. The plates were incubated at 37° C. for 72 hours under anaerobic conditions.

[2] = system: COX-2 protein levels in HT-29 cells; details: at 3.6 μg/ml; cited from earlier work
MMP-9 enzyme = target: T1, MMP-9 enzyme (Homo sapiens, UniProt P14780); test: Matrix metalloproteinase-9 assay (colorimetric kit); assay type: biochemical; details: at 0.411 μg/ml, single concentration
T1 construct: purchased Enzo Life Sciences BML-AK410
Procedure: The MMP-9 Colorimetric Drug Discovery Kit (BML-AK410) from Enzo Life Sciences was used. The experiment was carried out as described in the instruction manual. The MMP chromogenic substrate (Ac-PLG-[2-mercapto-4-methyl-pentanoyl]-LG-OC2H5) and the inhibitor N-Isobutyl-N-(4-methoxyphenylsulfonyl)glycyl hydroxamic acid (NNGH) was thawed to room temperature. The inhibitor was diluted 1/200 in assay buffer (50 mM HEPES, 10 mM CaCl2, 0.05% Brij-35, 1 mM DTNB, pH 7.5) and warmed until 37° C. The substrate was diluted 1/25 in assay buffer to the required volume. The MMP-9 enzyme was diluted in assay buffer to 1/60 and warmed until 37° C. just before the assay. The plant extract was dissolved in dimethyl sulfoxide (DMSO) to a starting concentration of 2 mg/ml.
In the plant extract wells, 50 μl of plant extract and 90 μl of buffer was added to the first well of the 96 well plate (½ volume). To the rest of the plant extract wells, 70 μl of buffer was added and the plant extracts serially diluted. Assay buffer was plated in the rest of the relevant wells as follows: blank 90 μl, control 70 μl, and NNGH 50 μl. […] The plates were continuously read at A412nm by using a BIO-TEK Power Wave Multiwell plate reader (A.D.P., Weltevreden Park, South Africa) at one (1) minute intervals for twenty (20) minutes using KC Junior software (Highland Park, Winooski, Vermont, USA).

[3] = DPPH radical scavenging assay; assay type: biochemical
Procedure: The antioxidant activities of Plectranthus […] ethanolic extract was investigated using 1,1-Diphenyl-2-picrylhydrazyl (DPPH) free radical scavenging assay as described by Mavundza (Mavundza, 2010). To the top wells of a 96-well ELISA plate 200 μl of distilled water was added and to the remaining wells 110 μl of distilled water as a medium. Twenty microliters of plant extract and the controls was added to the first top wells that followed a double dilution. To each of the wells 90 μl of 90 μM DPPH ethanolic solution was added and left to incubate covered with aluminium foil for 30 minutes at room temperature. The final concentrations for the Plectranthus […] ethanolic extracts ranged from 3.9 to 500 μg/ml (Mavundza, 2010). […] The radical scavenging capacities of the extracts were determined by using a BIO-TEK Power Wave Multiwell plate reader ([…], South Africa) at 515 nm using KC Junior software (Highland Park, Winooski, Vermont, USA) to measure the disappearance of DPPH at 515 nm. The radical scavenging activity was determined as a percentage DPPH radical-scavenging that was calculated by the following equation, where AC is the absorbance of the control solution that only contains DPPH and AS is the absorbance of the plant sample in DPPH solution: % DPPH radical-scavenging=(AC-AS)/AC×100 […]

[4] = NO antioxidant (nitric oxide scavenging) assay; assay type: biochemical

T1 sequence (P14780 107-444 limits assumed): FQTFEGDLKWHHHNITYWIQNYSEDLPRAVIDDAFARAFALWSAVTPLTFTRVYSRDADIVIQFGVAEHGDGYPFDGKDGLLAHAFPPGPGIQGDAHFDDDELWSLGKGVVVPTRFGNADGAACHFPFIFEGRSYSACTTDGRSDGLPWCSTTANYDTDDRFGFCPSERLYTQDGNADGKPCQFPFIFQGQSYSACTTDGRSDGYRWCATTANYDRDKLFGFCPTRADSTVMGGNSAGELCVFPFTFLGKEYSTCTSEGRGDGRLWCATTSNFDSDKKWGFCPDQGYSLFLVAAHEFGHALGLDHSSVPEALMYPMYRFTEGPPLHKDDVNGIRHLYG

- MIC [1]: 62.5 µg/mL (≈ 218 µM)
SMILES: O=c1cc(-c2ccc(O)c(O)c2)oc2cc(O)cc(O)c12 [Luteolin]

SMILES: CN(C)[C@@H]1C(O)=C(C(N)=O)C(=O)[C@@]2(O)C(O)=C3C(=O)c4c(O)cccc4[C@@](C)(O)[C@H]3C[C@@H]12 [tetracycline]
- MIC [1]: 0.78 µg/mL (≈ 1.76 µM)

SMILES: O=C(/C=C/c1ccc(O)c(O)c1)O[C@H](Cc1ccc(O)c(O)c1)C(=O)O [rosmarinic acid]
- effect on COX-2 protein levels [2]: reduced COX-2 protein levels in HT-29 cells to levels comparable to that of the control cells

SMILES: COc1ccc(S(=O)(=O)N(CC(=O)NO)CC(C)C)cc1 [positive control, N-Isobutyl-N-(4-methoxyphenylsulfonyl)glycyl hydroxamic acid]
- MMP-9 inhibition (MMP-9 enzyme): 96%

- DPPH antioxidant activity IC50 [3]: 9.0 ± 2.0 µg/mL
- nitric oxide (NO) antioxidant activity IC50 [4]: 65.8 ± 5.9 µg/mL
SMILES: O=C1O[C@H]([C@@H](O)CO)C(O)=C1O [vitamin C, L-ascorbic acid]
